From patent US10597388B2, “Pyridazinone herbicides” (FMC CORPORATION, priority 2014, dated 2020)

Legend:
Assay type in all cases: in vivo
[1] = test system: blackgrass (Alopecurus myosuroides); experiment: Test C greenhouse herbicide test, pre- and postemergence
In short: (§1)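 Pre- and postemergence greenhouse screen; values are visual control ratings, 0 meaning no effect and 100 complete kill, assigned relative to untreated plants after 13 to 15 d.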

soybean (Glycine max) = experiment: as above
In short: as §1

[2] = test system: foxtail, giant (giant foxtail, Setaria faberii); experiment: as above
In short: as §1

[3] = test system: crabgrass, large (large crabgrass, Digitaria sanguinalis); experiment: as above
In short: as §1

[4] = test system: wheat (winter wheat, Triticum aestivum); experiment: as above
In short: as §1

[5] = test system: lambsquarters (Chenopodium album); experiment: as above
In short: as §1

[6] = test system: ragweed (common ragweed, Ambrosia elatior); experiment: as above
In short: as §1

[7] = test system: oilseed rape (Brassica napus); experiment: as above
In short: as §1

[8] = test system: morningglory (Ipomoea coccinea); experiment: as above
In short: as §1

[9] = test system: pigweed (Amaranthus retroflexus); experiment: as above
In short: as §1

[10] = test system: johnsongrass (Sorghum halepense); experiment: as above
In short: as §1

[11] = test system: nutsedge, yellow (yellow nutsedge, Cyperus esculentus); experiment: as above
In short: as §1

[12] = test system: waterhemp (common waterhemp, Amaranthus rudis); experiment: as above
In short: as §1

[13] = test system: ryegrass, Italian (Italian ryegrass, Lolium multiflorum); experiment: as above
In short: as §1

corn (Zea mays) = experiment: as above
In short: as §1

kochia (Kochia scoparia) = experiment: Test C greenhouse herbicide test, postemergence
In short: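 Plants grown in potting mix of peat moss, vermiculite, wetting agent and starter nutrients were sprayed postemergence at 2 to 18 cm height (1- to 4-leaf stage). After 13 to 15 d in the greenhouse, injury was visually rated against untreated controls on a 0–100 scale (0 no effect, 100 complete control).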

[14] = Postemergence, 31 g ai/ha, 0 to 100 scale (0 no effect, 100 complete control)
[15] = Postemergence, 125 g ai/ha, scale 0 to 100, 0 is no effect, 100 is complete control
[16] = Postemergence, 250 g ai/ha, scale 0 to 100, 0 no effect, 100 complete control, 13 to 15 d
[17] = Preemergence, 31 g ai/ha, scale 0 to 100, 0 is no effect, 100 is complete control
[18] = Preemergence, 62 g ai/ha, scale 0 to 100, 0 is no effect, 100 is complete control
[19] = Preemergence, 125 g ai/ha, scale 0 to 100, 0 is no effect, 100 is complete control
[20] = Preemergence, 250 g ai/ha, scale 0 to 100 (0 no effect, 100 complete control)
[21] = postemergence, 62 g ai/ha, scale 0 to 100, 0 no effect, 100 complete control

## COc1nn(C)c(=O)c(-c2c(C)ccc3ccccc23)c1OC(=O)OC(C)C [Compound 36]
[1]; [14]
  Blackgrass plant response rating: 5
[1]; [15]
  Plant response rating, Blackgrass: 5
[1]; [16]
  Plant response rating, Blackgrass: 20
[1]; [17]
  Plant response rating, Blackgrass: 0
[1]; [18]
  Plant response rating, Blackgrass: 30
[1]; [19]
  Plant response rating, Blackgrass: 20
[1]; [20]
  Blackgrass plant response rating: 30
[1]; [21]
  Blackgrass plant response rating: 5
Soybean (Glycine max); [14]
  Soybean plant response rating: 0
Soybean (Glycine max); [15]
  Plant response rating, Soybean: 5
Soybean (Glycine max); [16]
  Plant response rating, Soybean: 15
Soybean (Glycine max); [17]
  Plant response rating, Soybean: 100
Soybean (Glycine max); [18]
  Plant response rating, Soybean: 0
Soybean (Glycine max); [19]
  Plant response rating, Soybean: 30
Soybean (Glycine max); [20]
  Soybean plant response rating: 20
Soybean (Glycine max); [21]
  Soybean plant response rating: 0
[2]; [14]
  Foxtail, Giant plant response rating: 30
[2]; [15]
  Plant response rating, Foxtail, Giant: 70
[2]; [16]
  Plant response rating, Foxtail, Giant: 80
[2]; [17]
  Plant response rating, Foxtail, Giant: 75
[2]; [18]
  Plant response rating, Foxtail, Giant: 75
[2]; [19]
  Plant response rating, Foxtail, Giant: 85
[2]; [20]
  Foxtail, Giant plant response rating: 85
[2]; [21]
  Foxtail, Giant plant response rating: 55
[3]; [14]
  Crabgrass, Large plant response rating: 25
[3]; [15]
  Plant response rating, Crabgrass, Large: 25
[3]; [16]
  Plant response rating, Crabgrass, Large: 35
[3]; [17]
  Plant response rating, Crabgrass, Large: 70
[3]; [18]
  Plant response rating, Crabgrass, Large: 20
[3]; [19]
  Plant response rating, Crabgrass, Large: 20
[3]; [20]
  Crabgrass, Large plant response rating: 65
[3]; [21]
  Crabgrass, Large plant response rating: 30
[4]; [14]
  Wheat plant response rating: 0
[4]; [15]
  Plant response rating, Wheat: 0
[4]; [16]
  Plant response rating, Wheat: 5
[4]; [17]
  Plant response rating, Wheat: 0
[4]; [18]
  Plant response rating, Wheat: 0
[4]; [19]
  Plant response rating, Wheat: 0
[4]; [20]
  Wheat plant response rating: 0
[4]; [21]
  Wheat plant response rating: 0
[5]; [14]
  Lambsquarters plant response rating: 90
[5]; [15]
  Plant response rating, Lambsquarters: 98
[5]; [16]
  Plant response rating, Lambsquarters: 100
[5]; [17]
  Plant response rating, Lambsquarters: 70
[5]; [18]
  Plant response rating, Lambsquarters: 80
[5]; [19]
  Plant response rating, Lambsquarters: 85
[5]; [20]
  Lambsquarters plant response rating: 80
[5]; [21]
  Lambsquarters plant response rating: 98
[6]; [14]
  Ragweed plant response rating: 90
[6]; [15]
  Plant response rating, Ragweed: 95
[6]; [16]
  Plant response rating, Ragweed: 95
[6]; [17]
  Plant response rating, Ragweed: 85
[6]; [18]
  Plant response rating, Ragweed: 90
[6]; [19]
  Plant response rating, Ragweed: 95
[6]; [20]
  Ragweed plant response rating: 95
[6]; [21]
  Ragweed plant response rating: 90
[7]; [14]
  Oilseed Rape plant response rating: 40
[7]; [15]
  Plant response rating, Oilseed Rape: 50
[7]; [16]
  Plant response rating, Oilseed Rape: 90
[7]; [17]
  Plant response rating, Oilseed Rape: 50
[7]; [18]
  Plant response rating, Oilseed Rape: 60
[7]; [19]
  Plant response rating, Oilseed Rape: 60
[7]; [20]
  Oilseed Rape plant response rating: 95
[7]; [21]
  Oilseed Rape plant response rating: 40
[8]; [14]
  Morningglory plant response rating: 90
[8]; [15]
  Plant response rating, Morningglory: 98
[8]; [16]
  Plant response rating, Morningglory: 100
[8]; [17]
  Plant response rating, Morningglory: 80
[8]; [18]
  Plant response rating, Morningglory: 80
[8]; [19]
  Plant response rating, Morningglory: 90
[8]; [20]
  Morningglory plant response rating: 95
[8]; [21]
  Morningglory plant response rating: 98
[9]; [14]
  Pigweed plant response rating: 70
[9]; [15]
  Plant response rating, Pigweed: 95
[9]; [16]
  Plant response rating, Pigweed: 100
[9]; [17]
  Plant response rating, Pigweed: 90
[9]; [18]
  Plant response rating, Pigweed: 100
[9]; [19]
  Plant response rating, Pigweed: 100
[9]; [20]
  Pigweed plant response rating: 100
[9]; [21]
  Pigweed plant response rating: 85
[10]; [14]
  Johnsongrass plant response rating: 0
[10]; [15]
  Plant response rating, Johnsongrass: 5
[10]; [16]
  Plant response rating, Johnsongrass: 5
[10]; [17]
  Plant response rating, Johnsongrass: 0
[10]; [18]
  Plant response rating, Johnsongrass: 5
[10]; [19]
  Plant response rating, Johnsongrass: 5
[10]; [20]
  Johnsongrass plant response rating: 5
[10]; [21]
  Johnsongrass plant response rating: 5
[11]; [14]
  Nutsedge, Yellow plant response rating: 20
[11]; [15]
  Plant response rating, Nutsedge, Yellow: 55
[11]; [16]
  Plant response rating, Nutsedge, Yellow: 65
[11]; [17]
  Plant response rating, Nutsedge, Yellow: 10
[11]; [18]
  Plant response rating, Nutsedge, Yellow: 20
[11]; [19]
  Plant response rating, Nutsedge, Yellow: 20
[11]; [20]
  Nutsedge, Yellow plant response rating: 65
[11]; [21]
  Nutsedge, Yellow plant response rating: 40
[12]; [14]
  Waterhemp plant response rating: 85
[12]; [15]
  Plant response rating, Waterhemp: 95
[12]; [16]
  Plant response rating, Waterhemp: 98
[12]; [17]
  Plant response rating, Waterhemp: 100
[12]; [18]
  Plant response rating, Waterhemp: 100
[12]; [19]
  Plant response rating, Waterhemp: 100
[12]; [20]
  Waterhemp plant response rating: 100
[12]; [21]
  Waterhemp plant response rating: 95
[13]; [14]
  Ryegrass, Italian plant response rating: 55
[13]; [15]
  Plant response rating, Ryegrass, Italian: 60
[13]; [16]
  Plant response rating, Ryegrass, Italian: 80
[13]; [17]
  Plant response rating, Ryegrass, Italian: 30
[13]; [18]
  Plant response rating, Ryegrass, Italian: 30
[13]; [19]
  Plant response rating, Ryegrass, Italian: 35
[13]; [20]
  Ryegrass, Italian plant response rating: 85
[13]; [21]
  Ryegrass, Italian plant response rating: 60
Corn (Zea mays); [14]
  Corn plant response rating: 0
Corn (Zea mays); [15]
  Plant response rating, Corn: 5
Corn (Zea mays); [16]
  Plant response rating, Corn: 5
Corn (Zea mays); [17]
  Plant response rating, Corn: 0
Corn (Zea mays); [18]
  Plant response rating, Corn: 0
Corn (Zea mays); [19]
  Plant response rating, Corn: 0
Corn (Zea mays); [20]
  Corn plant response rating: 0
Corn (Zea mays); [21]
  Corn plant response rating: 0
Kochia (Kochia scoparia); [14]
  Kochia plant response rating: 50
Kochia (Kochia scoparia); [15]
  Plant response rating, Kochia: 55
Kochia (Kochia scoparia); [16]
  Plant response rating, Kochia: 90
Kochia (Kochia scoparia); [21]
  Kochia plant response rating: 55
